From ChEMBL document CHEMBL1201862, “PubChem BioAssay data set” (2004)
Calls of active or inactive are those of the source.

Tests used:
Apelin receptor = Apelin receptor (Homo sapiens, UniProt P35414); experiment: apelin receptor antagonists, arrestin read-out – cell-based, luminescent, enzyme-fragment complementation, selectivity assay for CCR6 antagonist project, SAR follow-up (AID 588359); format: functional
Beta-galactosidase = Beta-galactosidase (Escherichia coli, UniProt Q8VNN2); experiment: detection-enzyme interference by beta-gal modulators – biochemical, E. coli enzyme, set 3, artefact control for CCR6 antagonist project, dose response (AID 504712); format: functional
[1] = Luminescence Cell-Based Dose Retest to Confirm Inhibitors of Cancer Stem Cells. [Related pubchem assays (depositor defined):AID2717, AID2721]; format: functional; conditions: Homo sapiens
[2] = viability loss of HMLE_sh_eGFP cells – cell-based, luminescence, counter-screen for HMLE_sh_ECad selective toxicity project, dose response (AID 463074); format: functional, Homo sapiens;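 further: HMLE human mammary epithelial cells expressing control shRNA against eGFP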
cells [3] = format: functional, cell-based
BJ [4] = experiment: growth inhibition of engineered Ras-driven BJ cells – cell-based, alamar blue fluorescence, cherrypicked samples, dose response (AID 2631); format: functional; conditions: Homo sapiens;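 further: confirmatory dose-response assay in RAS-dependent BJ fibroblasts engineered with TERT, LT and ST, with cytotoxicity read by fluorescence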
[5] = biological target: Heat shock protein HSP 90-alpha (Homo sapiens, UniProt P07900); format: functional, organism-based
BJ [6] = experiment: BJ-TERT fibroblast viability loss – cell-based, RAS-independent, luminescence, dose response (AID 1933); format: functional; conditions: Homo sapiens
[7] = non-specific 3'UTR reporter inhibition in Clone20-Shn3RL – cell-based, Renilla luciferase, cherry-picked, counter-screen for Shn3 inhibitor project, dose response (AID 624133); format: functional
BJ [8] = experiment: cells; format: functional, cell-based; conditions: Homo sapiens
[9] = DRD fibroblast viability loss – cell-based, non-viral oncogenic, luminescence, dose response (AID 1934); format: functional; conditions: Homo sapiens
HEK293 [10] = experiment: HEK293T cell viability loss, resazurin readout – resazurin fluorescence, cytotoxicity control for NF-kB activator project, SAR follow-up (AID 493251); format: functional, cell-based; conditions: Homo sapiens
BJ [11] = experiment: BJ-TERT-LT-ST fibroblast viability loss – cell-based, RAS-independent, luminescence, dose response (AID 1935); format: functional; conditions: Homo sapiens;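 further: BJ fibroblasts immortalized with TERT plus LT and ST oncogenes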
[12] = reduction of Shn3 3'UTR-driven luciferase in osteoblasts – cell-based, Clone20 osteoblasts, firefly luciferase, cherry-picked, dose response (AID 624132); format: functional;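 further: firefly luciferase luminescence from reporter carrying the Shn3 3'UTR in osteoblasts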
[13] = loss of viability in HepG2 cells – cell-based, CellTiter-Glo, cherry-picked, cytotoxicity control for Shn3 inhibitor project, dose response (AID 624134); format: functional
cells [14] = format: functional, cell-based; remark: listed apart in the source
HEK293 [15] = experiment: SAR Analysis of small molecule inhibitors of T-cell specific antigen receptor-induced NF-kB activation in a HEK-293T cell line using a luminescence assay - Set 2. [Related pubchem assays (depositor defined):AID435003, AID435012, AID489026]; format: functional, cell-based; conditions: Homo sapiens
Jurkat [16] = experiment: SAR Analysis of small molecule inhibitors of T-cell specific antigen receptor-induced NF-kB activation in a Jurkat cell line using a luminescence assay - Set 2. [Related pubchem assays (depositor defined):AID435003, AID435012, AID465]; format: functional, cell-based; conditions: Homo sapiens
HEK293 [17] = experiment: EBV LMP1 TES2 canonical NF-kB signalling blockers – cell-based, HEK293, luciferase, cherry-pick, dose response (AID 588343); format: functional; conditions: Homo sapiens
[18] = biological target: Latent membrane protein 1 (Human herpesvirus 4 (strain B95-8), UniProt P03230); experiment: LMP1 TES1 pathway selectivity over dsRED control – imaging, HEK293T, dual-color eGFP/dsRED, cherry-picks, selectivity assay for LMP1 NF-kB inhibitor project, dose response (AID 588398); format: functional, cell-based
[19] = NIH-3T3 fibroblast cytotoxicity, dose response, cytotoxicity control, cell-based, fluorescence, Alamar Blue, secondary assay (AID 2327); format: functional;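 further: NIH-3T3 mouse fibroblasts cultured with fluconazole at 8 µg/mL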
[20] = fluconazole-exposed Candida albicans growth modulators – fluorescence, retest, confirmation (AID 2467); format: functional, cell-based
[21] = biological target: T1, Heat shock factor protein 1 (Mus musculus, UniProt P38532); experiment: decrease of HSF1-responsive luciferase luminescence – cell-based, NIH3T3, dose retest, confirmation (AID 2382); format: functional;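 further: NIH3T3 fibroblasts with HSF1-driven luciferase reporter stressed by proteasome inhibitor MG132; luminescence from HSF1-driven luciferase expression after 8 hours of MG132 stress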
T1 sequence (P38532 whole entry): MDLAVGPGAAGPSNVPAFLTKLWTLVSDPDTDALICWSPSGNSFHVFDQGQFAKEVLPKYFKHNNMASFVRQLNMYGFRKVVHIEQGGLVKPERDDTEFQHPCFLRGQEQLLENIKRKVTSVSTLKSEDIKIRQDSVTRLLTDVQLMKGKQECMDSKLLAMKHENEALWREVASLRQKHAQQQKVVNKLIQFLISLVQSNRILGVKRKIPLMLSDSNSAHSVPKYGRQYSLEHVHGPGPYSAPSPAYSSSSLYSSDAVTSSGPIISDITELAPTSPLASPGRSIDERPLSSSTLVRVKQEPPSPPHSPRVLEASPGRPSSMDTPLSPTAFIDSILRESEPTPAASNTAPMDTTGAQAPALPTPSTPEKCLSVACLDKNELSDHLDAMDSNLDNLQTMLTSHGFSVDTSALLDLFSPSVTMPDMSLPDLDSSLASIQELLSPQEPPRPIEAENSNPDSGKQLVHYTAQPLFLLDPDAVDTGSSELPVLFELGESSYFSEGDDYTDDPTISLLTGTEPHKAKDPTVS

cells [22] = format: functional
[23] = THP-1 cell cytotoxicity, dose response, cytotoxicity control for non-replicating M. tuberculosis project (AID 489025); format: functional
[24] = biological target: T2, Polyadenylate-binding protein 1 (Homo sapiens, UniProt P11940); experiment: MLLE binding blockers, Cy5 peptide tracer – biochemical, fluorescence polarization, Cy5-PAM2 peptide, secondary, miRNA deadenylation inhibitor project, dose response (AID 602260); format: functional; conditions: read-out: IC50_Mean
[25] = biological target: T2, Polyadenylate-binding protein 1; experiment: MLLE domain peptide-binding blockers, IC50 – biochemical, fluorescence polarization, FITC-PAM2 peptide, dose response (AID 602259); format: functional; conditions: read-out: IC50_Mean
[26] = biological target: T3, Short transient receptor potential channel 4 (Mus musculus, UniProt Q9QUQ5); experiment: SAR Analysis for the identification of selective inhibits of the transient receptor potential cation channel C4 (TRPC4): Automated Electrophysiology. [Related pubchem assays (depositor defined):AID2256]; format: functional
T3 sequence (Q9QUQ5 whole entry): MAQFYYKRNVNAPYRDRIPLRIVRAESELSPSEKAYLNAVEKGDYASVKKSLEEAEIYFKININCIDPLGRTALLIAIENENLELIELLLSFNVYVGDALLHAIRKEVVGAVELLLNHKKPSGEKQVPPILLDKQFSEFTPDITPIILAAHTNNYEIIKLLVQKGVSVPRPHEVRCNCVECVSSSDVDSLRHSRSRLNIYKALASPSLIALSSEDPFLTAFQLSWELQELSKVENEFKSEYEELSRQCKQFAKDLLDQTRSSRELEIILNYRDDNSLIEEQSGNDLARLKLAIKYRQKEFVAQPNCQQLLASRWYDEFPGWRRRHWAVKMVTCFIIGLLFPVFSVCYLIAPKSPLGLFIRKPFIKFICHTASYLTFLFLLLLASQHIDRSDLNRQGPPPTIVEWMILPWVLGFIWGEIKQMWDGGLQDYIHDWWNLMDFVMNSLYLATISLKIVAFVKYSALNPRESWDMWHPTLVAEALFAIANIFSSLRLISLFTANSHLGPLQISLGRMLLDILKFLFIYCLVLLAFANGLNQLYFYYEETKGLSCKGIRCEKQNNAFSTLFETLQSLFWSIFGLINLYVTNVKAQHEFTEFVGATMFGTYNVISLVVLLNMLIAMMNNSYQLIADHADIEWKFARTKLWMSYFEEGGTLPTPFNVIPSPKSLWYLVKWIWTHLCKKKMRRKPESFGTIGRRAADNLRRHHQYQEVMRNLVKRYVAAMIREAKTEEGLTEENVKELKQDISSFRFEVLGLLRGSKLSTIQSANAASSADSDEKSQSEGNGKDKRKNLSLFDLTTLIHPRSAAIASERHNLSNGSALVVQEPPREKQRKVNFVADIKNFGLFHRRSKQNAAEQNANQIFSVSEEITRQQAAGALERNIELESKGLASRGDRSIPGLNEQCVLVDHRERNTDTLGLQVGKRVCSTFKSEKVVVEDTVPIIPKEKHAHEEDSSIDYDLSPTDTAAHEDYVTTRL

[27] = biological target: T3, Short transient receptor potential channel 4; experiment: block of DAMGO-driven TRPC4 calcium entry – cell-based, HEK293 TRPC4/mu-opioid, Fluo-4 calcium, dose response (AID 434942); format: functional;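 further: potency of inhibitors blocking the TRPC4 calcium response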
Jurkat [28] = experiment: SAR Analysis of small molecule inhibitors of […] specific antigen receptor-induced NF-kB activation in a Jurkat cell line using a luminescence assay - Set 3. [Related pubchem assays (depositor defined):AID435022, AID435025, AID465]; format: functional, cell-based; conditions: Homo sapiens
HEK293 [29] = experiment: SAR Analysis of small molecule inhibitors of B-cell specific antigen receptor-induced NF-kB activation in a HEK-293T cell line using a luminescence assay - Set 2. [Related pubchem assays (depositor defined):AID435022, AID435025, AID489021]; format: functional, cell-based; conditions: Homo sapiens
[30] = biological target: T4, Neuropeptides B/W receptor type 1 (Homo sapiens, UniProt P48145); experiment: human NPBW1 receptor blockade, IC50 – cell-based, fluorescence, dose response, set 5, late-stage follow-up (AID 588566); format: functional
T4 sequence (P48145 whole entry): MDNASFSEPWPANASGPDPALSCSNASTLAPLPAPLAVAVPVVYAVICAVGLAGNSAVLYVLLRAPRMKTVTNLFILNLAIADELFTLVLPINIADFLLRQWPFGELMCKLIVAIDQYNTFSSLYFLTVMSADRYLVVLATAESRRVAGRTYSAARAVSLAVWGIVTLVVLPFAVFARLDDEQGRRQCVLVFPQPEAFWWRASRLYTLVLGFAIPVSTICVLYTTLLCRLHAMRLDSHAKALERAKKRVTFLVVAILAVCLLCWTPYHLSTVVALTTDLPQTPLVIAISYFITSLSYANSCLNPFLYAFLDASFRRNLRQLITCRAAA

[31] = biological target: Melanin-concentrating hormone receptor 1 (Homo sapiens, UniProt Q99705); experiment: Late-stage fluorescence-based counterscreen for antagonists of the G-protein coupled receptor 7 (GPR7): cell-based dose response assay to identify antagonists of the melanin-concentrating hormone receptor 1 (MCHR1) Set 5.; format: functional
Chain of Melanin-concentrating hormone receptor 1 (Q99705 whole entry): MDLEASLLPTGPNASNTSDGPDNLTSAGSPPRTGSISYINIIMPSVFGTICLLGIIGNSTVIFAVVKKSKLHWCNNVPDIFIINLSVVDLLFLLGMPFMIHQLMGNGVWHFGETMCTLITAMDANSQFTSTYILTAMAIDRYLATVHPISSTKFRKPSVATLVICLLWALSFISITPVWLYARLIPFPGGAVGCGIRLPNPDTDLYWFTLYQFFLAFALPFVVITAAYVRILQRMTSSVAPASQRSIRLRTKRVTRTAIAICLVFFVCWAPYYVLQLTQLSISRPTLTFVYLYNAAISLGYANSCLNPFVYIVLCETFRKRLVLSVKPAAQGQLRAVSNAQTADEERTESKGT

Chain of Latent membrane protein 1 (P03230 whole entry): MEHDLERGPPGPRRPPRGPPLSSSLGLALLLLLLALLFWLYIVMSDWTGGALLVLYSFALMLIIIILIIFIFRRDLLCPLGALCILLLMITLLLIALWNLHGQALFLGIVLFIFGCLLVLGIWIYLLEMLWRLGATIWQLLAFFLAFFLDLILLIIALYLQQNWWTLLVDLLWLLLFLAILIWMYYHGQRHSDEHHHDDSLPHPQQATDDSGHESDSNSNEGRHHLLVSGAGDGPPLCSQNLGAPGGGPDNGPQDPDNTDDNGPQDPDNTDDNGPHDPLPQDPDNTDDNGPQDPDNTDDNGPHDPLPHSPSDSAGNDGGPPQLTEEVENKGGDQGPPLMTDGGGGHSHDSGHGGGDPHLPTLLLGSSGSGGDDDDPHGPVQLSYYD
T2 sequence (P11940 whole entry, the tested form may be a part): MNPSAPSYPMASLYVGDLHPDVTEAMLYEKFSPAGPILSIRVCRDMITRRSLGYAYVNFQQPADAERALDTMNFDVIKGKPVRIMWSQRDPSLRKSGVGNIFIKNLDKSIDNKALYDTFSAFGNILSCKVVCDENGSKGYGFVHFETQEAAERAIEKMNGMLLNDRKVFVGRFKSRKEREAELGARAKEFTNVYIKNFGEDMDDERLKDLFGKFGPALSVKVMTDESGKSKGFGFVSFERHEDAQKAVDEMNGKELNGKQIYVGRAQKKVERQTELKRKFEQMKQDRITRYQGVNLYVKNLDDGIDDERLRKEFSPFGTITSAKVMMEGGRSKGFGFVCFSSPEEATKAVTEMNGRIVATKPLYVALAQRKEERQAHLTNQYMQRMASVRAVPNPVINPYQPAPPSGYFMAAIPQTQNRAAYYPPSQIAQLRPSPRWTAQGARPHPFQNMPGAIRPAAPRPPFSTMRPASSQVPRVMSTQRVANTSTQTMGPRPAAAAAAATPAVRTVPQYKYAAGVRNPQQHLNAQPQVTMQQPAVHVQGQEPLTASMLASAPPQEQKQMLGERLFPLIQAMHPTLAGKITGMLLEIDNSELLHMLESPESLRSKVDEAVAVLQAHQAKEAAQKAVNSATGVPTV
Chain of Apelin receptor (P35414 whole entry, the tested form may be a part): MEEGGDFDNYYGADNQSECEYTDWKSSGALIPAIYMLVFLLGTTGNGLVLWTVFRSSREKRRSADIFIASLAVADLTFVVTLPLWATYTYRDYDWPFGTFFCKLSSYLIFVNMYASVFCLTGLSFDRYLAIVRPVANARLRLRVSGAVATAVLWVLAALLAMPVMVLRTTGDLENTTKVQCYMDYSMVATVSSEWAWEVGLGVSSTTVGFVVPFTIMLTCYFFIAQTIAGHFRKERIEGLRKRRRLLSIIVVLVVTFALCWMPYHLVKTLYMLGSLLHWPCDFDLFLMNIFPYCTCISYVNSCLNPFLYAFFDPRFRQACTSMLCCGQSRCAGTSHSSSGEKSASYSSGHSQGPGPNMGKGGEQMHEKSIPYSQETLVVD
Chain of Beta-galactosidase (Q8VNN2 whole entry): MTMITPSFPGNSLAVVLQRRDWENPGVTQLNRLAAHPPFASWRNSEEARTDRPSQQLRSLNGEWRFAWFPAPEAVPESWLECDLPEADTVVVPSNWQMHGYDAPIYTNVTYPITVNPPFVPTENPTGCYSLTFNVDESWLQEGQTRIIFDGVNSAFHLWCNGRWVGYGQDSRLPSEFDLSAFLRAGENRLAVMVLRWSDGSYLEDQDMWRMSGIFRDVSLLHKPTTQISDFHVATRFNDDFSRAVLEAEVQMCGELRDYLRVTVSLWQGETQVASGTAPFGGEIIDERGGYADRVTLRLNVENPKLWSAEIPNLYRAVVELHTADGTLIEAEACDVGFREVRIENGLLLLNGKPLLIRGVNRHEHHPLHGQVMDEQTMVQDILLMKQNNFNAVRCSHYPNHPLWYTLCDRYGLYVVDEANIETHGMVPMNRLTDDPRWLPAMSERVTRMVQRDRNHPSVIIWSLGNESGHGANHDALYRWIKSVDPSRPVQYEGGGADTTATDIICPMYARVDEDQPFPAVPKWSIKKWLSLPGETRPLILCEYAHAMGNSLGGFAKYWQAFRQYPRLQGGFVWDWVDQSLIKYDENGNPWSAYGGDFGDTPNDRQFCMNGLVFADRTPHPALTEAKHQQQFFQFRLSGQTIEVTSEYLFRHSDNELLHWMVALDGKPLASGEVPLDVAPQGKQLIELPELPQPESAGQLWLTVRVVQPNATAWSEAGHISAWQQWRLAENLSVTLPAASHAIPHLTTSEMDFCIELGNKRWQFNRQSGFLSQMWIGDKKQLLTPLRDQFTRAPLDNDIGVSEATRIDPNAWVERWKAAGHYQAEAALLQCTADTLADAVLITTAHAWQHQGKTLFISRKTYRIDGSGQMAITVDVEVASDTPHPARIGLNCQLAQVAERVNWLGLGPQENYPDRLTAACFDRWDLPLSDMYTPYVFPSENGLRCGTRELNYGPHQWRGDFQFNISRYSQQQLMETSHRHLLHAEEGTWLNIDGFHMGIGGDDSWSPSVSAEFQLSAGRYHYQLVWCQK

O=C(NNC(=O)c1cc(-c2ccccc2)nn1-c1ccccc1)c1ccccc1
IC50 (Apelin receptor): 14.8 µM (active)
IC50 (Beta-galactosidase): > 66.6 µM (inactive)

O=C1Nc2cc(C(=O)N3CCc4ccccc4C3)ccc2S/C1=C\c1ccccc1
AC50 [1]: 3.43 µM (active)
AC50 [2]: 55.5 µM (active)

CCCCC(=O)NC(c1ccc(C(C)C)cc1)c1ccc2cccnc2c1O (stereo unspecified)
EC50 (cells [3]): > 350 µM (not active)
EC50 (BJ [4]): 2.13 µM (active)
AC50 [5]: 5.41 µM (active)
EC50 (BJ [6]): 0.534 µM (active)
AC50 [7]: 0.331 µM (active)
EC50 (BJ [8]): 2.67 µM (active)
EC50 [9]: 4.19 µM (active)
IC50 (HEK293 [10]): 20.2 µM (inactive)
EC50 (BJ [11]): 1.5 µM (inconclusive)
AC50 [12]: 0.57 µM (active)
AC50 [13]: > 70 µM (inactive)
EC50 (cells [14]): 2.94 µM (active)
IC50 (HEK293 [15]): 6.67 µM (active)
IC50 (Jurkat [16]): 3.17 µM (active)

CCOC(=O)c1c(-n2cccc2)sc2c1CCCC2=O
AC50 (HEK293 [17]): 12.3 µM (active)
AC50 [18]: 4.1 µM (active)

COc1ccc(OC2C(=O)N(Cc3ccc4c(c3)OCO4)C2c2sccc2C)cc1 (stereo unspecified)
EC50 [19]: > 160 µM (inactive)
AC50 [1]: 29.8 µM (active)
AC50 [2]: 40.4 µM (active)
EC50 [20]: > 38 µM (not active)
EC50 [21]: > 195 µM (not active)

CN1C(=O)N(C)c2ccc(C=O)c3cccc1c23
IC50 (cells [22]): 31.1 µM (active)
AC50 (HEK293 [17]): 6.36 µM (active)
CC50 [23]: 24.6 µM (active)
IC50 [24]: 37.9 µM (inactive)
AC50 [18]: 0.774 µM (active)
IC50 [25]: 58.8 µM (inactive)

O=C(Cc1ccccc1)Nc1ccccc1Sc1ccccc1
IC50 [26]: 38.7 µM (active)
EC50 [27]: 1.88 µM (active)

COc1ccc(C(=O)Nc2ccc(NC(=O)c3cc4ccccc4o3)cc2)cc1[N+](=O)[O-]
IC50 (HEK293 [10]): > 80 µM (inactive)
IC50 (HEK293 [15]): > 80 µM (inactive)
IC50 (Jurkat [16]): 76.7 µM (inactive)

CCOc1ccc(-c2nc(CSCC(=O)NCCc3ccc(Cl)cc3)c(C)o2)cc1
IC50 (Jurkat [28]): 63.8 µM (inactive)
IC50 (HEK293 [10]): > 80 µM (inactive)
IC50 (HEK293 [29]): > 80 µM (inactive)

CCCNC(=O)CSCc1nc(-c2ccc(OCC)cc2)oc1C
IC50 (Jurkat [28]): > 80 µM (inactive)
IC50 (HEK293 [10]): > 80 µM (inactive)
IC50 (HEK293 [29]): 74.7 µM (inactive)

Cc1ccc(C(C#N)c2c(Cl)cnn(Cc3cccc4ccccc34)c2=O)cc1 (stereo unspecified)
IC50 [30]: 0.381 µM (active)
IC50 [31]: 1.24 µM (active)

CCOc1ccc(Oc2c(N3CCCC3)c(Br)nn(Cc3cccc4ccccc34)c2=O)cc1
IC50 [30]: > 20 µM (inactive)
IC50 [31]: > 20 µM (inactive)
